Measurements: patent US9862712B2, “Benzimidazole based EGFR inhibitors” (COUNCIL OF SCIENTIFIC & INDUSTRIAL RESEARCH, priority 2014, dated 2018)

Columns and labels:
[1] = system: A549 Cell line (Lung Cancer Cell line); assay: MTT cell proliferation assay, A549 Cell line; type: cell-based, human; conditions: Homo sapiens, 72 h, MTT; for viability at 0.01 µM: A549, 0.01 μM; for viability at 0.1 µM: A549, 0.1 μM; for viability at 2.5 µM: A549, 2.5 μM; for viability at 5 µM: A549, 5 μM; for viability at 10 µM: A549, 10 μM
Method: (§1) 1. Protocol Followed for Anti Cancer Activity and Results, Cell Proliferation Assays: Cell lines used herein were purchased from NCCS (National Center for Cell Sciences) Pune, India. Invitro Activity was performed in NCL (National Chemical Laboratory) Pune. Each cell line was plated in 96-well microtiter plates (10,000 cells per well), and serial dilutions of indicated compounds were added. At the end of the incubation period (72 h at 37° C.), cell viability was determined by a tetrazolium dye, MTT (3-(4,5-dimethylthiazol-2-yl)-2,5-diphenyl tetrazolium bromide) (Promega, USA). The formazan crystals were dissolved in DMSO, and the absorbance at 600 nm was recorded using an ELISA plate reader. IC50 values were calculated using nonlinear regression and defined as the concentration needed for a 50% reduction in absorbance of treated versus untreated control cells.
By using the above procedure, the compounds of the invention were tested on A549 Cell line and the results obtained are presented below in table 4, Refer FIG. 1.

MCF-7 Cell line = assay: MTT cell proliferation assay, MCF-7 Cell line; type: cell-based; conditions: Homo sapiens, MCF7, 72 h, MTT; for viability at 0.01 µM: MCF-7, 0.01 μM; for viability at 0.1 µM: MCF-7, 0.1 μM; for viability at 2.5 µM: MCF-7, 2.5 μM; for viability at 5 µM: MCF-7, 5 μM; for viability at 10 µM: MCF-7, 10 μM
Method: as §1
Table 4 indicates anticancer activity against A549 Cell line. The Gefitinib was used as standard and % cell Viable was measured compared to control. The procedure used was MTT assay as mentioned. […] By using the above procedure, the compounds of the invention were tested on MCF-7 Cell line and the results obtained are presented below in table 5, Refer FIG. 2.

HOP-62 Cell line = assay: MTT cell proliferation assay, HOP-62 Cell line; type: cell-based; conditions: Homo sapiens, 72 h, MTT; for viability at 0.01 µM: HOP-62, 0.01 μM; for viability at 0.1 µM: HOP-62, 0.1 μM; for viability at 2.5 µM: HOP-62, 2.5 μM; for viability at 5 µM: HOP-62, 5 μM; for viability at 10 µM: HOP-62, 10 μM
Method: as §1
By using the above procedure, the compounds of the invention were tested on HOP-62 Cell line and the results obtained are presented below in table 6, Refer FIG. 3.

MDA-MB-436 Cell line = assay: MTT cell proliferation assay, MDA-MB-436 Cell line; type: cell-based; conditions: Homo sapiens, 72 h, MTT; for viability at 0.01 µM: MDA-MB-436, 0.01 μM; for viability at 0.1 µM: MDA-MB-436, 0.1 μM; for viability at 2.5 µM: MDA-MB-436, 2.5 μM; for viability at 5 µM: MDA-MB-436, 5 μM; for viability at 10 µM: MDA-MB-436, 10 μM
Method: as §1
By using the above procedure, the compounds of the invention were tested on MDA-MB-436 Cell line and the results obtained are presented below in table 7, Refer FIG. 4.

[2] = system: U87MG Cell line (Glioblastoma cell line); assay: MTT cell proliferation assay, U87MG Cell line; type: cell-based; conditions: Homo sapiens, U-87 MG, U87MG, 72 h, MTT
Method: as §1
By using the above procedure, the compounds of the invention were tested on U87MG Cell line (glioblastoma cell line) and the results obtained are presented below in table 8, Refer FIG. 5.

| Structure (SMILES) | viability at 0.01 µM [1] [%] | viability at 0.1 µM [1] [%] | viability at 2.5 µM [1] [%] | viability at 5 µM [1] [%] | viability at 10 µM [1] [%] | viability at 0.01 µM (MCF-7 Cell line) [%] | viability at 0.1 µM (MCF-7 Cell line) [%] | viability at 2.5 µM (MCF-7 Cell line) [%] | viability at 5 µM (MCF-7 Cell line) [%] | viability at 10 µM (MCF-7 Cell line) [%] | viability at 0.01 µM (HOP-62 Cell line) [%] | viability at 0.1 µM (HOP-62 Cell line) [%] | viability at 2.5 µM (HOP-62 Cell line) [%] | viability at 5 µM (HOP-62 Cell line) [%] | viability at 10 µM (HOP-62 Cell line) [%] | viability at 0.01 µM (MDA-MB-436 Cell line) [%] | viability at 0.1 µM (MDA-MB-436 Cell line) [%] | viability at 2.5 µM (MDA-MB-436 Cell line) [%] | viability at 5 µM (MDA-MB-436 Cell line) [%] | viability at 10 µM (MDA-MB-436 Cell line) [%] | also measured |
| --- | --- | --- | --- | --- | --- | --- | --- | --- | --- | --- | --- | --- | --- | --- | --- | --- | --- | --- | --- | --- | --- |
| Cc1ccc2[nH]c(-c3sc(Nc4ccccc4)nc3N)nc2c1 [Molecule S4-M10, 5-(5-methyl-1H-benzo[d]imidazol-2-yl)-N2-phenylthiazole-2,4-diamine] | 90.9 | 81 | 70.4 | 61.4 | 49.4 | 141 | 120 | 104 | 100 | 100 | 104 | 100 | 99.4 | 95.4 | 89.4 | 92.9 | 84 | 76.4 | 61.4 | 49.4 | viability at 0.01 µM [2]: 88.9%; viability at 0.1 µM [2]: 75%; viability at 2.5 µM [2]: 68.4%; viability at 5 µM [2]: 55.4%; viability at 10 µM [2]: 41.4% |
| COc1cc2ncnc(Nc3ccc(F)c(Cl)c3)c2cc1OCCCN1CCOCC1 [Gefitinib, reference compound] | – | – | – | – | – | 55.2 | 43.7 | 35.3 | 29.3 | 20.3 | 55.2 | 43.7 | 35.3 | 29.3 | 20.3 | 55.2 | 43.7 | 35.3 | 29.3 | 20.3 | – |
| COc1ccc(Nc2nc(N)c(-c3nc4cc(C)ccc4[nH]3)s2)cc1 [Molecule S4-M11, N^2-(4-methoxyphenyl)-5-(5-methyl-1H-benzo[d]imidazol-2-yl)thiazole-2,4-diamine] | 94.8 | 80.7 | 72.8 | 63.8 | 51.8 | 157 | 133 | 110 | 101 | 101 | 157 | 101 | 98.2 | 96.8 | 91.8 | 96.8 | 92.7 | 84.2 | 73.8 | 61.8 | viability at 0.01 µM [2]: 86.8%; viability at 0.1 µM [2]: 71.7%; viability at 2.5 µM [2]: 60.2%; viability at 5 µM [2]: 49.8%; viability at 10 µM [2]: 38.8% |
| Cc1ccc(Nc2nc(N)c(-c3nc4ccccc4[nH]3)s2)cc1 [Molecule S4-M9, 5-(1H-benzo[d]imidazol-2-yl)-N2-p-tolylthiazole-2,4-diamine] | 89 | 79.8 | 68.3 | 57.3 | 48.3 | 100 | 98.8 | 96.3 | 96.3 | 96.6 | 123 | 101 | 100 | 98.3 | 90.8 | 91 | 85.8 | 79.3 | 69.3 | 54.6 | viability at 0.01 µM [2]: 99.4%; viability at 0.1 µM [2]: 99.9%; viability at 2.5 µM [2]: 99.4%; viability at 5 µM [2]: 98.6%; viability at 10 µM [2]: 96.9% |
| Cc1ccc(Nc2nc(N)c(-c3nc4cc(C)ccc4[nH]3)s2)cc1 [Molecule S4-M14, 5-(5-methyl-1H-benzo[d]imidazol-2-yl)-N2-p-tolylthiazole-2,4-diamine] | 96 | 84.1 | 71.1 | 62.1 | 51.1 | 94 | 90.1 | 83.6 | 69.3 | 65.1 | 101 | 95.1 | 93.6 | 88.3 | 80.1 | 99 | 98.1 | 98.6 | 99.3 | 94.1 | viability at 0.01 µM [2]: 87%; viability at 0.1 µM [2]: 78.1%; viability at 2.5 µM [2]: 67.6%; viability at 5 µM [2]: 53.3%; viability at 10 µM [2]: 46.1% |
| Nc1nc(Nc2cccc(C(F)(F)F)c2)sc1-c1nc2ccccc2[nH]1 [Molecule S4-M8, 5-(1H-benzo[d]imidazol-2-yl)-N2-(3-(trifluoromethyl)phenyl)thiazole-2,4-diamine] | 98.6 | 88.8 | 76.6 | 68.6 | 59.6 | 98.6 | 90.8 | 82.6 | 79.6 | 69.6 | 99.6 | 90.8 | 89.6 | 81.6 | 80.6 | 101 | 99.8 | 98.6 | 97.6 | 97.6 | viability at 0.01 µM [2]: 86.6%; viability at 0.1 µM [2]: 73.8%; viability at 2.5 µM [2]: 61.6%; viability at 5 µM [2]: 54.6%; viability at 10 µM [2]: 41.6% |
| Cc1ccc2[nH]c(-c3sc(Nc4ccc(Cl)cc4)nc3N)nc2c1 [Molecule S4-M12, N^2-(4-chlorophenyl)-5-(5-methyl-1H-benzo[d]imidazol-2-yl)thiazole-2,4-diamine] | 93.1 | 81.4 | 69.9 | 58.9 | 49.9 | 99.1 | 91.4 | 85.9 | 74.9 | 70.8 | 102 | 95.4 | 92.9 | 85.9 | 79.9 | 94.1 | 89.4 | 79.9 | 65.9 | 51.8 | viability at 0.01 µM [2]: 92.1%; viability at 0.1 µM [2]: 81.4%; viability at 2.5 µM [2]: 73.9%; viability at 5 µM [2]: 61.9%; viability at 10 µM [2]: 49.8% |
| Cc1ccc2[nH]c(-c3sc(Nc4cccc(C(F)(F)F)c4)nc3N)nc2c1 [Molecule S4-M13, N^2-(3-(trifluoromethyl)phenyl)-5-(5-methyl-1H-benzo[d]imidazol-2-yl)thiazole-2,4-diamine] | 99.4 | 82.9 | 73.6 | 61.6 | 50.6 | 99.4 | 92.9 | 81.4 | 72.6 | 66.9 | 99.4 | 96.9 | 90.4 | 80.6 | 75.6 | 98.4 | 96.9 | 97.4 | 97.6 | 97.9 | viability at 0.01 µM [2]: 95.8%; viability at 0.1 µM [2]: 83.7%; viability at 2.5 µM [2]: 71.2%; viability at 5 µM [2]: 60.8%; viability at 10 µM [2]: 53.8% |
